From US11708368B2, “Crystal form of ethyl (S)-3-(8-bromo-1-methyl-6-(pyridin-2-yl)-4H-benzo[f]imidazo[1,2-a][1,4]diazepin-4-yl)propanoate hydrochloride” (JIANGSU NHWALUOKANG PHARMACEUTICAL RESEARCH AND DEVELOPMENT …, priority 2018, dated 2023)

How the values were obtained:
[1] = Accelerated stability test (40° C., RH75%), change in degradation product CNS-7054; type: physicochemical; settings: for Change in CNS-7054, Accelerated experiment (40° C., RH75%): 6 months, after packaging, degradation product CNS-7054; for CNS-7054 increase, accelerated experiment (40° C., RH75%): in 1 month, sulfonate of the benzodiazepine derivative
Experimental: (§1) The compound of Formula I prepared in the above examples were selected, and placed under the conditions of 40° C., RH75% and 25° C., RH60% for an accelerated stability test and a long-term stability test after packaging. The changes in the degradation product (CNS-7054) in these compounds in 6 months were observed, and the results are shown in Table 13 below.
(§2) In addition, a lyophilized preparation made of sulfonates according to the prior art were partially degraded into carboxylic acid (CNS-7054) and released alcohol in both the accelerated and long-term experiments.

[2] = Long-term stability test (25° C., RH60%), change in degradation product CNS-7054; type: physicochemical; settings: for Change in CNS-7054, Long-term experiment (25° C., RH60%): 6 months, after packaging, degradation product CNS-7054; for CNS-7054 increase, long-term experiment (25° C., RH60%): in 3 months, sulfonate of the benzodiazepine derivative
Experimental: as §1, §2

KM mice [3] = assay: Hypnotic ED50 in KM mice by sequential method (disappearance of righting reflex); type: in vivo; settings: male KM mice, tail vein injection in 5 seconds
Experimental: (§3) Sequential method was used to determine the hypnotic ED50 and LD50 in KM mice for the hydrochloride of the benzodiazepine derivative. Healthy and qualified male KM mice were selected, n=10−20. The drug was injected through the tail vein at a constant rate in 5 seconds. After preliminary pre-test, the approximate dosage that may cause hypnosis (or death) of the animals was found as an intermediate dosage in the formal experiment. A group interval of 0.8 was used, and 2-3 dosage groups were set up and down respectively. The formal experiment started with the administration from the intermediate dosage. When the animal was narcotized (or died), the dosage was reduced by one dose. If the animal was not narcotized (or died), the dosage was increased by one until 3-4 repetitions occurred. The ED50 value and LD50 value were measured with the disappearance of righting reflex or death as indicators. The therapeutic index (TI index=[…]) was calculated through LD50 and ED50 values.

KM mice [4] = assay: LD50 in KM mice by sequential method (death); type: in vivo; settings: for TI (therapeutic index): KM mice, calculated through LD50 and ED50 values; for LD50 (95% confidence interval): male KM mice, tail vein injection in 5 seconds, death, sequential method
Experimental: as §3

patients = settings: Phase II clinical trial of ICU sedation; cited from earlier work
KM mice [5] = assay: 2*ED50 anesthesia pharmacodynamics experiment in KM mice (induction time, duration, walking time); type: in vivo; settings: n=20, dosage 2*ED50, tail vein injection in 5 seconds
Experimental: KM mice, half male and half female, 20 mice in each group. […] The time of loss of the righting reflex in mice (induction time), recovery time (duration) and walking time were recorded.

## COC(=O)CCC1N=C(c2ccccn2)c2cc(Br)ccc2-n2c(C)cnc21.Cl (stereo not shown) [Methyl, 3% glycine]
[1]
  Change in CNS-7054, Accelerated experiment (40° C., RH75%): Not increased
[2]
  Change in CNS-7054, Long-term experiment (25° C., RH60%): Not increased

## CCOC(=O)CCC1N=C(c2ccccn2)c2cc(Br)ccc2-n2c(C)cnc21.O=S(=O)(O)c1ccccc1 (stereo not shown) [positive control 2]
KM mice [3]
  ED50 (95% confidence interval): 15.62 mg/kg
KM mice [4]
  TI (therapeutic index): 16.8
  LD50 (95% confidence interval): 263.14 mg/kg

## COC(=O)CCC1N=C(c2ccccn2)c2cc(Br)ccc2-n2c(C)cnc21.Cc1ccc(S(=O)(=O)O)cc1 (stereo not shown)
[1]
  CNS-7054 increase, accelerated experiment (40° C., RH75%): Increased by 0.1%
[2]
  CNS-7054 increase, long-term experiment (25° C., RH60%): Increased by 0.1%

## COC(=O)CCC1N=C(c2ccccn2)c2cc(Br)ccc2-n2c(C)cnc21.O=S(=O)(O)c1ccccc1 (stereo not shown) [positive control 1]
KM mice [3]
  ED50 (95% confidence interval): 40.64 mg/kg
KM mice [4]
  TI (therapeutic index): 6.6
  LD50 (95% confidence interval): 270.09 mg/kg

## COC(=O)CC[C@@H]1N=C(c2ccccn2)c2cc(Br)ccc2-n2c(C)cnc21 [Remimazolam]
patients
  hemodynamics of the patients after receiving the drug: unstable
  patients with plasma concentration higher than the normal range: 10%

## CCOC(=O)CCC1N=C(c2ccccn2)c2cc(Br)ccc2-n2c(C)cnc21.Cl (stereo not shown) [Ethyl, 4.5% glycine]
[1]
  Change in CNS-7054, Accelerated experiment (40° C., RH75%): Not increased
[2]
  Change in CNS-7054, Long-term experiment (25° C., RH60%): Not increased

## CCOC(=O)CCC1N=C(c2ccccn2)c2cc(Br)ccc2-n2c(C)cnc21.Cl (stereo not shown) [Ethyl, 4% valine]
[1]
  Change in CNS-7054, Accelerated experiment (40° C., RH75%): Increased by 0.01%

## CCOC(=O)CC[C@@H]1N=C(c2ccccn2)c2cc(Br)ccc2-n2c(C)cnc21.Cl [R is ethyl, hydrochloride, ethyl (S)-3-(8-bromo-1-methyl-6-(pyridin-2-yl)-4H-benzo[f]imidazo[1,2-a][1,4]diazepin-4-yl)propanoate hydrochloride]
KM mice [5]
  incidence of the animal anesthesia time of more than 10 minutes: 20%
  incidence of the animal walking time of more than 1 min: 15%

## CCOC(=O)CCC1N=C(c2ccccn2)c2cc(Br)ccc2-n2c(C)cnc21.Cl (stereo not shown) [Ethyl, 2.8% glycine]
[1]
  Change in CNS-7054, Accelerated experiment (40° C., RH75%): Not increased
[2]
  Change in CNS-7054, Long-term experiment (25° C., RH60%): Not increased

## COC(=O)CCC1N=C(c2ccccn2)c2cc(Br)ccc2-n2c(C)cnc21.Cl (stereo not shown) [Methyl, None]
[1]
  Change in CNS-7054, Accelerated experiment (40° C., RH75%): Not increased

## CCOC(=O)CCC1N=C(c2ccccn2)c2cc(Br)ccc2-n2c(C)cnc21.Cl (stereo not shown) [Ethyl, 1.7% glycine]
[1]
  Change in CNS-7054, Accelerated experiment (40° C., RH75%): Not increased
[2]
  Change in CNS-7054, Long-term experiment (25° C., RH60%): Not increased

## CCOC(=O)CCC1N=C(c2ccccn2)c2cc(Br)ccc2-n2c(C)cnc21.O=S(=O)(O)c1ccccc1 (stereo not shown)
[1]
  CNS-7054 increase, accelerated experiment (40° C., RH75%): Increased by 0.05%
[2]
  CNS-7054 increase, long-term experiment (25° C., RH60%): Increased by 0.03%

## CCOC(=O)CCC1N=C(c2ccccn2)c2cc(Br)ccc2-n2c(C)cnc21.Cc1ccc(S(=O)(=O)O)cc1 (stereo not shown)
[1]
  CNS-7054 increase, accelerated experiment (40° C., RH75%): Increased by 0.2%
[2]
  CNS-7054 increase, long-term experiment (25° C., RH60%): Increased by 0.1%

## CCOC(=O)CCC1N=C(c2ccccn2)c2cc(Br)ccc2-n2c(C)cnc21.Cl (stereo not shown) [Ethyl, None]
[1]
  Change in CNS-7054, Accelerated experiment (40° C., RH75%): Not increased
[2]
  Change in CNS-7054, Long-term experiment (25° C., RH60%): Not increased

## COC(=O)CCC1N=C(c2ccccn2)c2cc(Br)ccc2-n2c(C)cnc21.Cl (stereo not shown) [Methyl, 2% glycine]
[1]
  Change in CNS-7054, Accelerated experiment (40° C., RH75%): Not increased
[2]
  Change in CNS-7054, Long-term experiment (25° C., RH60%): Not increased

## COC(=O)CC[C@@H]1N=C(c2ccccn2)c2cc(Br)ccc2-n2c(C)cnc21.O=S(=O)(O)c1ccccc1
[1]
  CNS-7054 increase, accelerated experiment (40° C., RH75%): Increased by 0.07%
[2]
  CNS-7054 increase, long-term experiment (25° C., RH60%): Increased by 0.04%

## COC(=O)CCC1N=C(c2ccccn2)c2cc(Br)ccc2-n2c(C)cnc21.Cl (stereo not shown) [Methyl, 4% valine]
[1]
  Change in CNS-7054, Accelerated experiment (40° C., RH75%): Increased by 0.01%
[2]
  Change in CNS-7054, Long-term experiment (25° C., RH60%): Not increased

## COC(=O)CCC1N=C(c2ccccn2)c2cc(Br)ccc2-n2c(C)cnc21.Cl (stereo not shown) [Methyl, 4% glycine]
[1]
  Change in CNS-7054, Accelerated experiment (40° C., RH75%): Increased by
[2]
  Change in CNS-7054, Long-term experiment (25° C., RH60%): Not increased

## CCOC(=O)CCC1N=C(c2ccccn2)c2cc(Br)ccc2-n2c(C)cnc21.Cl (stereo not shown) [Ethyl, 4% alanine]
[1]
  Change in CNS-7054, Accelerated experiment (40° C., RH75%): Increased by 0.01%
[2]
  Change in CNS-7054, Long-term experiment (25° C., RH60%): Not increased

## COC(=O)CCC1N=C(c2ccccn2)c2cc(Br)ccc2-n2c(C)cnc21.Cl (stereo not shown) [Methyl, 5% alanine]
[1]
  Change in CNS-7054, Accelerated experiment (40° C., RH75%): Increased by 0.01%
[2]
  Change in CNS-7054, Long-term experiment (25° C., RH60%): Not increased

## COC(=O)CCC1N=C(c2ccccn2)c2cc(Br)ccc2-n2c(C)cnc21.O=S(=O)(O)c1ccccc1 (stereo not shown) [Positive control 1]
KM mice [5]
  Number of animals with duration time longer than 10 min: 9/20
  Number of animals with walking time longer than 1 min: 17/20
  Walking time: 514.95 ± 525.16 s
  duration time (recovery time): 692.3 ± 399.15 s
  induction time (time of loss of the righting reflex): 17.6 ± 1.93 s

## CCOC(=O)CCC1N=C(c2ccccn2)c2cc(Br)ccc2-n2c(C)cnc21.Cl (stereo not shown) [Ethyl, 5% alanine]
[1]
  Change in CNS-7054, Accelerated experiment (40° C., RH75%): Increased by 0.01%
[2]
  Change in CNS-7054, Long-term experiment (25° C., RH60%): Not increased

## CCOC(=O)CCC1N=C(c2ccccn2)c2cc(Br)ccc2-n2c(C)cnc21.O=S(=O)(O)c1ccccc1 (stereo not shown) [Positive control 2]
KM mice [5]
  Number of animals with duration time longer than 10 min: 7/20
  Number of animals with walking time longer than 1 min: 10/20
  Walking time: 192.9 ± 268.98 s
  duration time (recovery time): 443.75 ± 247.86 s
  induction time (time of loss of the righting reflex): 17.1 ± 2.00 s
